pEC50, pIC50: −log10 of the molar value. Like-named read-outs stand apart in the source and are kept apart here. Each block holds one compound with its values, some of them ahead of it.
How the values were obtained:
[1] = test system: bone calcium mobilization; assay: Bone Calcium Mobilization in Rat (plasma Ca increase); type: in vivo; conditions: 12.5 ng/rat, intrajugular, 18 h
Description: Controls received carrier alone. Bone Ca resorption (BCR) was estimated by measuring the blood Ca increase in the treated rats. Blood was collected in heparinized tubes and centrifuged. The resulting plasma was measured for calcium concentration by atomic absorption spectroscopy. Since rats were fed a diet essentially devoid of Ca, plasma Ca increases reflected mobilization of Ca from bone, not intestinal Ca absorption.

[2] = test system: intestinal calcium absorption (duodenum); assay: Stimulation of Intestinal Calcium Absorption in Rat (intestinal 45Ca transport, everted gut sac); conditions: 12.5 ng/rat, intrajugular, 18 h
vitamin D deficient rats = conditions: 3 weeks
[3] = biological target: T1, 1,25-(OH)2 D3 receptors (chick intestine) (Gallus gallus, UniProt O42392); assay: Competitive Binding to 1,25-(OH)2 D3 Intestine Receptors, chick; conditions: a/b×100 from amounts displacing 50% of 1,25-(OH)2[3H]D3
T1 construct: receptor prepared from intestine of chick, rat and calf; from tissue; host or cells: chick proximal small-intestine mucosa, cytosol, 35% ammonium sulphate precipitate
T1 sequence (O42392 1-451): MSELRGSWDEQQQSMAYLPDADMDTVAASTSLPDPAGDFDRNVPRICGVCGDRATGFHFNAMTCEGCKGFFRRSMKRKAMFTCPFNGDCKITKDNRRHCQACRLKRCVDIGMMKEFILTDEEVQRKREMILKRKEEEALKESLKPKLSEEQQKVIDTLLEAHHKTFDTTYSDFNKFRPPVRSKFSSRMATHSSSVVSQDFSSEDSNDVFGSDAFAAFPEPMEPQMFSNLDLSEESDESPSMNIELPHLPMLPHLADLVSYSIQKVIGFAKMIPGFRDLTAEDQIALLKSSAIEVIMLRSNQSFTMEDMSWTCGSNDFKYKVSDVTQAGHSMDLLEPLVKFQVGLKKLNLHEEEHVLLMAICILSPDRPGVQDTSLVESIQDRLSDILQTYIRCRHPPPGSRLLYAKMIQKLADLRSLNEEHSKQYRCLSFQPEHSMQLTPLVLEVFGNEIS
Description: (§1) The ability of vitamin D3 metabolites to compete for 1,25-(OH)[^3 H]D3 receptor binding sites was evaluated with receptor prepared from intestine of chick, rat and calf. […] Mucosa was collected and washed three times with 10 volumes of cold KTED buffer. The washed mucosa was homogenized in KTED buffer (20% w/v) using a Polytron Pt20 tissue disruptor. Cytosol was prepared by centrifugation of the homogenized mucosa at 300,000×g for 1 hour. […] The ammonium sulphate treated cytosol was centrifuged at 20,000×g for 10 minutes. The supernatant was discarded and the pellet lyophilized and stored at […] Prior to binding assay the pellet was resuspended in cold binding assay buffer containing 150 mM KCl, 50 mM NaPO4, 1.5 mM EDTA and 5 mM dithiothreitol.

[4] = test system: HL-60 promyelocytic leukemia cells; assay: Induction of differentiation of HL-60 cells (NBT reduction); type: cell-based, human; conditions: for pEC50: Homo sapiens, HL-60, 192 h, read-out: ED50 (concentration which induced differentiation of 50% of the cells)
Description: (§2) Inhibition of Cell Proliferation and Induction of Cell Differentiation
(§3) Cultures of HL-60 promyelocytic leukemia cells were established in the absence (control) and presence of various concentrations of test compounds. After an 8-day incubation period, the cultures were evaluated for proliferation of tumor cells, cell viability, and cellular differentiation. Proliferation was assessed by directly enumerating the increased number of tumor cells resulting from cell division during incubation. Viability was assessed by dye exclusion technique to learn whether any of the compounds were lethal to the cultured HL-60 cells. Cellular differentiation was evaluated by determining the number of cells which had acquired the enzymes necessary to support a respiratory burst, a characteristic of mature macrophages and granulocytes.
(§4) Tissue culture medium used in these experiments was RPMI-1640 supplemented to 10% v/v with heat-inactivated fetal bovine serum and to an additional 1.6 mM with L-glutamine.
(§5) Test compounds were dissolved in sufficient ethanol to yield stock solutions of 1×10^-2 or 1×10^-3 molar. Reduced lighting was used when working with compounds and stock solutions were stored in the dark at -20° C. in an argon atmosphere. Compounds were diluted in tissue culture medium and added to flasks containing HL-60 cells to achieve the final concentration described in each test.
(§6) The HL-60 tumor cell line was originally derived from a patient with promyelocytic leukemia and was obtained from the American Type Culture Collection. The cells were maintained in liquid culture by serial passage twice weekly in tissue culture medium. […] In any test, three replicate flasks were incubated without compound (control) or in the presence of varying concentrations of test compound. Ethanol, used as the vehicle, was kept constant in all dilutions in each test and had no effect on cell proliferation, viability or cell differentiation at the concentrations used (≤0.1%). After 8 days of incubation at 37° in a humidified atmosphere of 5% CO2 in air, cultures were evaluated for tumor cell proliferation, viability and differentiation.
Quantitation of differentiated cells was done by the biochemical method of nitroblue tetrazolum (NBT) reduction. One million HL-60 cells were pooled from replicate cultures, centrifuged at 220×g for 10 minutes, and resuspended in 1 ml of Ca^++ -Mg^++ -deficient phosphate buffered saline prepared by supplementing Ca^++ -Mg^++ -free phosphate buffered saline (PBS) to 20% v/v with heat-inactivated fetal bovine serum). Nitroblue tetrazolium was dissolved at 0.5 mg per ml in Ca^++ -Mg^++ -free PBS with gentle heating and frequent mixing. A stock solution of 1 mg tetradecanoyl phorbol acetate (TPA) per ml in ethanol, stored at -20°, was diluted 100-fold with Ca^++ -Mg^++ -free PBS to prepare a working solution. The test was done by adding 1 ml of NBT solution and 0.02 ml of the working TPA solution to the HL-60 cells. After mixing, the tubes were incubated in a 37° water bath for 25 minutes then transferred to ice. Undifferentiated and differentiated cells present in any sample were determined microscopically by surveying a minimum of 300 cells per sample. Cells without pigmented granules (clear cells) were judged to be undifferentiated while those containing greater than 3 blue-black formazan granules were scored as differentiated. Generally, differentiated cells were intensely pigmented clearly indicating the enzymatic conversion of NBT to formazan. Results are expressed as the percentage of differentiated cells present in any sample as calculated according to the formula: [formula] The results are also expressed as the concentration of compound which induced differentiation of 50% of the cells (ED50).

[5] = test system: HL-60 promyelocytic leukemia cells; assay: Inhibition of proliferation of HL-60 cells; type: cell-based; conditions: Homo sapiens, HL-60, 192 h; for pIC50: read-out: ID50 (concentration which reduced the cell number by 50%)
Description: as §2, §3, §4, §5, §6
Quantitation of proliferation was done by enumerating the number of HL-60 cells in each individual flask (3 flasks per experimental point) using an Elzone electronic particle counter. Results are shown as the percent reduction of cell number calculated for each concentration tested according to the formula: [formula] The results are also expressed as the concentration which reduced the cell number by 50% (ID50).

[6] = biological target: T2, 1,25-(OH)2 D3 receptors (calf intestine) (Bos taurus, UniProt Q28037); assay: Competitive Binding to 1,25-(OH)2 D3 Intestine Receptors, calf; conditions: a/b×100 from amounts displacing 50% of 1,25-(OH)2[3H]D3
T2 construct: receptor prepared from intestine of chick, rat and calf; from tissue; host or cells: calf proximal small-intestine mucosa, cytosol, 35% ammonium sulphate precipitate
T2 sequence (Q28037 1-426): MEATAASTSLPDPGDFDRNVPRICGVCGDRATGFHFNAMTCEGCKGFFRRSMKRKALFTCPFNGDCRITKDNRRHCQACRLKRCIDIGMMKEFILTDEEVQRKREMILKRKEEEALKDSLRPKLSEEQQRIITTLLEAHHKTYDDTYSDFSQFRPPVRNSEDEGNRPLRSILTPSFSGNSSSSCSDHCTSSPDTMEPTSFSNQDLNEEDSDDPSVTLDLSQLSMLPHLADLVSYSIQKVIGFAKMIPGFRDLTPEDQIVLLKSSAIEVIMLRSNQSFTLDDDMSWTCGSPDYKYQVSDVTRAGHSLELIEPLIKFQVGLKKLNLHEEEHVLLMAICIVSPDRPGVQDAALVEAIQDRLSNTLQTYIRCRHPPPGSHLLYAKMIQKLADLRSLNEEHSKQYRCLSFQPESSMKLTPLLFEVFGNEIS
Description: as §1

[7] = read-out: % Reduction in cell number
[8] = 8 days, from dose response curves

Structure (SMILES): C=C1/C(=C\C=C2/CCC[C@]3(C)[C@@H]([C@H](C)CCCC(C)(C)O)CC[C@@H]23)C[C@@H](O)C[C@@H]1O [1,25-(OH)2 D3, reference compound]
% of 1,25-(OH)2 D3 Effect in Rat, bone calcium mobilization [1]: 100%
% of 1,25-(OH)2 D3 Effect in Rat, intestinal calcium absorption [2]: 100%
Bone Mass (vitamin D deficient rats; daily dose 15 ng): 156 ± 16 mm^3 /cm^3
Serum Ca^2+ (vitamin D deficient rats; daily dose 15 ng): 11.76 ± 0.16 mg/dL
Serum PO4^2- (vitamin D deficient rats; daily dose 15 ng): 7.61 ± 0.31 mg/dL
Bone Mass (vitamin D deficient rats; daily dose 60 ng): 296 ± 56 mm^3 /cm^3
Serum Ca^2+ (vitamin D deficient rats; daily dose 60 ng): 11.92 ± 0.40 mg/dL
Serum PO4^2- (vitamin D deficient rats; daily dose 60 ng): 6.58 ± 0.30 mg/dL

Structure (SMILES): C=C1CC[C@H](O)C/C1=C/C=C1\CCC[C@]2(C)[C@@H]([C@H](C)CC#CC(C)(C)O)CC[C@@H]12 [Compound C, 25-hydroxy-23-yne-cholecalciferol]
Competitive Binding to 1,25-(OH)2 D3 Receptors - % of 1,25-(OH)2 D3 Effect, chick intestine [3]: 0%
% of 1,25-(OH)2 D3 Effect in Rat, bone calcium mobilization [1]: 0%
% Differentiated cells ([4]; 10 × 10^-8 M, 8 days): 5%
% Differentiated cells ([4]; 100 × 10^-8 M, 8 days): 27%
% Differentiated cells ([4]; 300 × 10^-8 M, 8 days): 95%
pEC50 [4]: 5.82
inhibition at 0.1 µM [5, 7]: 0%
inhibition at 1 µM [5, 7]: 31%
inhibition at 3 µM [5, 7]: 79%
pIC50 [5]: 5.82
% of 1,25-(OH)2 D3 Effect in Rat, intestinal calcium absorption [2]: 71%
Competitive Binding to 1,25-(OH)2 D3 Receptors - % of 1,25-(OH)2 D3 Effect, calf intestine [6]: 0%

Competitive Binding to 1,25-(OH)2 D3 Receptors - % of 1,25-(OH)2 D3 Effect, chick intestine [3]: 0%
pEC50 [4, 8]: 6.70
pIC50 [5, 8]: 6.60
Competitive Binding to 1,25-(OH)2 D3 Receptors - % of 1,25-(OH)2 D3 Effect, calf intestine [6]: 0%
Structure (SMILES): C=C1CC[C@H](O)C/C1=C/C=C1\CCC[C@]2(C)[C@@H]([C@H](C)CC#CC(O)(C(F)(F)F)C(F)(F)F)CC[C@@H]12 [Compound D, 25-hydroxy-23-yne-26,26,26,27,27,27-hexafluorocholecalciferol]
% of 1,25-(OH)2 D3 Effect in Rat, bone calcium mobilization [1]: 11%
% Differentiated cells ([4]; 1 × 10^-8 M, 8 days): 6%
% Differentiated cells ([4]; 10 × 10^-8 M, 8 days): 27%
% Differentiated cells ([4]; 100 × 10^-8 M, 8 days): 99%
inhibition at 0.01 µM ([5]; 1 × 10^-8 M, 8 days, read-out: % Reduction in cell number): 0%
inhibition at 0.1 µM ([5]; 10 × 10^-8 M, 8 days, read-out: % Reduction in cell number): 14%
inhibition at 1 µM ([5]; 100 × 10^-8 M, 8 days, read-out: % Reduction in cell number): 77%
% of 1,25-(OH)2 D3 Effect in Rat, intestinal calcium absorption [2]: 0%

Reference: patent US4804502A, “Vitamin D compounds” (priority 1988, dated 1989)
